Measurements published in patent US20210388319A1, “EXPANSION OF HEMATOPOIETIC STEM CELLS” (Mesoblast International Sarl, priority 2018, published 2021).

Legend:
[1] = test system: CB CD34+ cells (cord blood derived CD34+ HSCs); experiment: Co-culture of cord blood CD34+ cells with MPCs and small molecules, 4-colour flow cytometric analysis; assay type: cell-based, human; conditions: for expansion of CD34+ cells with the primitive HSC phenotype CD34+CD45RA− CD90+CD49f+: day 10, presence of MPCs and HDACi versus absence of MPCs or a HDACi (FIG. 9)
Description: • Cells: CB CD34+ (Stem Cell Technologies) • Medium: StemSpan SFEM (StemCell Technologies) supplemented with: • Human low density lipoprotein (Stem Cell Technologies) 10 μg/ml • Growth Factors (‘SFT’): • rHu-SCF 100 ng/ml • rHu-FLT3Ligand 100 ng/ml • rHu-TPO 50 ng/ml • (All recombinant cytokines are from R&D Systems) • Small Molecules: • SR1 (500 nM); UM171 (35 nM); Trichostatin A (TSA, 50 nM); Valproic Acid (VPA, 500 μM) (all from Stem Cell Technologies) • Assay conditions: • Day −1 MPC (MCBCC006) plated at 50,000/well in 2×24-well plates in Alpha-MEM/10% FBS • Day 0 10,000 CD34+ cells per well plated into each well of two 24 well plates. MPC containing wells were first washed to remove FBS medium. • The remaining CD34+ cells were cultured at the same concentration in a T-25 flask in StemSpan/SFT/SR-1+ UM171. This was to provide bulk cells for set up of flow cytometry analysis and to define electronic compensation settings for multicolour analysis. • Day 3 All groups were fed by removing 1.5 mL of media and replacing with 2.0 mL of fresh media+additives. • Day 5 Flow cytometric analysis: 1.5 mL of culture media was harvested from each well. For the suspension (No MPG) groups this was achieved by first aspirating the medium up and down to completely suspend the CD34+ cells before removing 1.5 mL of the suspension. For the +MPG groups, the CD34+ cells were resuspended in such a way that the MPC feeder layer was left intact. After the cells were removed from each well, they were replaced with 2.0 mL of fresh media+additives. A cell count was performed on all wells. This was required to determine not only the incidence of populations identified by FACS analysis, but also their absolute number. • Day 8 All groups were fed by removing 2.0 mL of media and replacing with 2.0 mL of fresh media and additives. • Day 10 Flow cytometric analysis: The complete content of each well was harvested. For the suspension (No MPG) groups this was achieved by first aspirating the medium up and down to completely suspend the CD34+ cells before removing the suspension. For the +MPG groups, the CD34+ cells in suspension were first harvested (as described above for Day 5). CD34+ cells attached to the MPC layer were then detached by a brief exposure (5 mins) to 0.05% trypsin-EDTA in PBS at 37° C., the trypsin quenched in 10% FBS and the detached cells pooled with the previously harvested suspension fraction to represent the Day 10 harvest.
A 4-colour flow cytometric analysis was performed to allow identification and quantitation of CD34+ cells and relevant subpopulations including candidate hematopoietic stem cells (HSC) according to the phenotype CD34+CD45RA− CD90+CD49f+ described for cord blood (Notta et al., (2011) Science 333: 218-221). All antibody conjugates were used at concentrations recommended by the manufacturers.
As noted above, the bulk culture of CD34+ cells in StemSpan/SFT/SR-1+ UM171 was used at both Day 5 and Day 10 to establish settings for flow cytometric analysis and to establish compensation settings. Stains with the following antibody/antibody combinations were performed:
Cord blood derived CD34+ HSCs were cultured in the presence and absence of immunoselected MPCs in the presence of: […]

[2] = test system: CD34+CD38-CD45RA− CD90+CD49f+ cells; experiment: Colony-forming unit (CFU) assay in MethoCult H4435 Enriched of FACS-isolated cells; assay type: cell-based, human; conditions: cells isolated by FACS after 10 days in co-culture with MPCs, SFV and VPA; colonies scored on day 14
Description: FIG. 11: CD34+CD38-CD45RA− CD90+CD49f+ cells isolated by FACS were cultured in MethoCult™ H4435 Enriched (Stem cell Technologies), and tested for colony forming efficiency on day 14 of culture. Overall colony forming efficiency was 0.42%.
CD34+CD38-CD45RA− CD90+CD49f+ cells were isolated by FACS after 10 days in co-culture with MPCs, SFV and VPA. These isolated cells were then cultured in MethoCult™ H4435 Enriched (Stem cell Technologies), which is a complete methylcellulose-based medium containing IL-3, IL-6, G-CSF, GM-CSF, SCF and EPO and useful for growth and enumeration of hematopoietic progenitor cells in colony-forming unit (CFU) assays). Colonies were scored on day 14 of culture and tested for colony forming efficiency. […] Overall colony forming efficiency was 0.42%.

Row | SMILES | expansion of CD34+ cells with the primitive HSC phenotype CD34+CD45RA− CD90+CD49f+ [1] | number of CD34+CD45RA− CD90+CD49f+ cells ([1]; after 10 days in co-culture with MPCs, SFV and VPA (500 μM), start about 500 primitive cells) | number of CD34+ cells ([1]; after 10 days in co-culture with MPCs, SFV and VPA (500 μM), start about 10,000 CD34+ cells) | increase in the number of CD34+CD90+CD49f+ cells ([1]; over a 10 day period, co-culture with MPCs, SFV and VPA) [fold] | overall colony forming efficiency [2] [%]
1 | CC(/C=C/C(=O)NO)=C\[C@@H](C)C(=O)c1ccc(N(C)C)cc1 [TSA, Trichostatin A] | substantially greater expansion |  |  |  | 
2 | CCCC(CCC)C(=O)O [VPA, Valproic Acid] | substantially greater expansion | about 22,000 cells | about 800,000 cells | ~44 | 0.42
